The text below walks through data of patent US9868698B2, “(2S,4R)-5-(5′-chloro-2′-fluorobiphenyl-4-yl)-4-(ethoxyoxalylamino)-2-hydroxymethyl-2-methylpentanoic acid” (THERAVANCE BIOPHARMA R&D IP, LLC, priority 2015, dated 2018).

Series [1] is described as follows: IV/PO pharmacokinetic study in dogs (Assay 3). The series is classed as in vivo. To be noted: male, beagle, plasma, dog, read-out: AUClast Mean. How it is done: (§1) Each rat or dog pharmacokinetic study began with formulation of the test compound. Appropriate masses of each test compound were added into a volume of vehicle (e.g. 5% sodium bicarbonate, 5% dextrose in water) such that the final concentration of each compound was appropriate to be dosed at 2 mL/kg. Although a homogenous suspension were acceptable for oral dosing, intravenous dosing solutions were sterile-filtered (0.2 μm) prior to dosing to ensure no particulates were administered.
In the dog study, male beagle dogs (3 per route) housed at Agilux Laboratories (Worcester, Mass.) and weighing between 7-12 kg received either a single oral gavage or a single intravenous (via indwelling catheter) dose of the dosing solution. The final dose was typically 0.1-2 mg/kg. Serial blood samples were harvested via direct venipuncture at 3 minutes, 15 minutes, 30 minutes, 1 hour, 2 hours, 4 hours, 6 hours, 8 hours, 12 hours, and 24 hours post-dose. All samples were collected manually into microtainer tubes containing sodium fluoride, potassium oxalate and paraoxon, and were processed to plasma by refrigerated centrifugation.
(§2) Plasma samples were extracted with 3 volumes of MeCN containing a suitable internal standard. Extracts were reconstituted into 3 volumes of water containing 1% formic acid, and analyzed via HPLC-coupled MS/MS. Plasma concentration-time data were analyzed using the Phoenix software (Pharsight Corp., St. Louis, Mo.) to calculate pharmacokinetic parameters.

Series [2] deals with T1, NEP (Homo sapiens, UniProt P08473). Nature of the series: In vitro enzyme inhibition assay, human NEP (Assay 1). It counts as biochemical. Set-up: purchased R&D Systems 1182-ZN. To be noted: read-out: human pKi (converted). How it is done:
(§3) The inhibitory activities at human and rat neprilysin (EC 3.4.24.11; NEP) were determined using in vitro assays as described below.
Recombinant human NEP was obtained commercially (R&D Systems, Minneapolis, Minn., catalog number 1182-ZN). The fluorogenic peptide substrate Mca-D-Arg-Arg-Leu-Dap-(Dnp)-OH (Medeiros et al. (1997) Braz. J. Med. Biol. Res. 30:1157-62; Anaspec, San Jose, Calif.) was used.
(§4) The assays were performed in 384-well white opaque plates at 37° C. using the fluorogenic peptide substrate at a concentration of 10 μM in Assay Buffer (50 mM HEPES, pH 7.5, 100 mM NaCl, 0.01% polyethylene glycol sorbitan monolaurate (Tween-20), 10 μM ZnSO4).
(§5) Test compounds were assayed over the range of concentrations from 10 μM to 20 pM. Test compounds were added to the enzyme and incubated for 30 minute at 37° C. prior to initiating the reaction by the addition of substrate. Reactions were terminated after 20 minutes of incubation at 37° C. by the addition of glacial acetic acid to a final concentration of 3.6% (v/v).
(§6) Plates were read on a fluorometer with excitation and emission wavelengths set to 320 nm and 405 nm, respectively. Inhibition constants were obtained by nonlinear regression of the data using the equation (GraphPad Software, Inc., San Diego, Calif.): v=v0/[1+(I/K′)] where v is the reaction rate, v0 is the uninhibited reaction rate, I is the inhibitor concentration and K′ is the apparent inhibition constant.
Target sequence in this assay (P08473 52-750 limits assumed): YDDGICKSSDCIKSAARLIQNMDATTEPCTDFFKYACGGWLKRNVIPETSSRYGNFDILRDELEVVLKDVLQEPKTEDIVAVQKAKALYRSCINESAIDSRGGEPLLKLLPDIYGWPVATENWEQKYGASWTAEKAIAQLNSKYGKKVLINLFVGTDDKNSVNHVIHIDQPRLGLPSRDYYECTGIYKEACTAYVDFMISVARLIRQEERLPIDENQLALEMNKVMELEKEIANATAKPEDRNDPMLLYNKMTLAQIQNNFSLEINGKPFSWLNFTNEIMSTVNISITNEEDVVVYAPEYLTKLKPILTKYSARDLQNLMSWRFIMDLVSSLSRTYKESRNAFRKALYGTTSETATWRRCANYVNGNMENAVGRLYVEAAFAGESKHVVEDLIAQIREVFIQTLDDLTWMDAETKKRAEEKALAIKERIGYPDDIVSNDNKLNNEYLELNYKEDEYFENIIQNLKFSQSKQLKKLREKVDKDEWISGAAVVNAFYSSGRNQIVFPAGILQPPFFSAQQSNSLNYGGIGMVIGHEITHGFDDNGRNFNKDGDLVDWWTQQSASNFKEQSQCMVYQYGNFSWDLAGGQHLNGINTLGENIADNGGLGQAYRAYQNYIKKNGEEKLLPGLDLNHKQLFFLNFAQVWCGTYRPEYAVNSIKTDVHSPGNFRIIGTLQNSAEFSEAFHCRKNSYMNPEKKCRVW

The target in series [3] is T2, Rat NEP (Rattus norvegicus, UniProt P07861).
T2 construct: leaving a viscous oily precipitate containing the enriched membrane fraction; from tissue; host or cells: kidneys of adult Sprague Dawley rats (Triton X-114 enriched membrane fraction)
T2 sequence (P07861 1-750): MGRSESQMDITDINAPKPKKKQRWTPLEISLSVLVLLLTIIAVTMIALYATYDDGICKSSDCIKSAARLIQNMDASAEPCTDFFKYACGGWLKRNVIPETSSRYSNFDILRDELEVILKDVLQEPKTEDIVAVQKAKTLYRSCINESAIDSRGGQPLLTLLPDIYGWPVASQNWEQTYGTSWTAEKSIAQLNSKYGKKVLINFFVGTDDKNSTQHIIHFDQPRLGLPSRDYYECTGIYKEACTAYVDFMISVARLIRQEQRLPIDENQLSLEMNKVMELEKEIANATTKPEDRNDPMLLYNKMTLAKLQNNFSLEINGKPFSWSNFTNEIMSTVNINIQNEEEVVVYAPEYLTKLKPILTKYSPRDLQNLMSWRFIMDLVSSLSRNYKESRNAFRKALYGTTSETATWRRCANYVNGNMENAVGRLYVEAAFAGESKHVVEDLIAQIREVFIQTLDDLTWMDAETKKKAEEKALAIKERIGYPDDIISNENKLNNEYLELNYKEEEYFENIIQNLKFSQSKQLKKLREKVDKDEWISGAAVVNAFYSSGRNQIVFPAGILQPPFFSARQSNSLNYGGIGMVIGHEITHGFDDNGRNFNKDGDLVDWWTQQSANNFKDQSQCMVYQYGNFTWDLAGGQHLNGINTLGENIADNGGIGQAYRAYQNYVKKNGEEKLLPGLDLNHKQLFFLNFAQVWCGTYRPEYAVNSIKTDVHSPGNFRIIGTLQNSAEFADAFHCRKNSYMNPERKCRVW
In words: In vitro enzyme inhibition assay, rat NEP (Assay 1). It counts as biochemical. To be noted: NEP from rat kidneys; read-out: rat pKi (converted). The protocol:
as §3
Rat NEP was prepared from the kidneys of adult Sprague Dawley rats. Whole kidneys were washed in cold phosphate buffered saline (PBS) and brought up in ice-cold lysis buffer (1% Triton X-114, 150 mM NaCl, 50 mM tris(hydroxymethyl) aminomethane (Tris) pH 7.5; Bordier (1981) J. Biol. Chem. 256: 1604-1607) in a ratio of 5 mL of buffer for every gram of kidney. Samples were homogenized on ice using a polytron hand held tissue grinder. Homogenates were centrifuged at 1000×g in a swinging bucket rotor for 5 minutes at 3° C. The pellet was resuspended in 20 mL of ice cold lysis buffer and incubated on ice for 30 minutes. Samples (15-20 mL) were then layered onto 25 mL of ice-cold cushion buffer (6% w/v sucrose, 50 mM pH 7.5 Tris, 150 mM NaCl, 0.06%, Triton X-114), heated to 37° C. for 3-5 minutes and centrifuged at 1000×g in a swinging bucket rotor at room temperature for 3 minutes. The two upper layers were aspirated off, leaving a viscous oily precipitate containing the enriched membrane fraction. Glycerol was added to a concentration of 50% and samples were stored at −20° C. Protein concentrations were quantitated using a BCA detection system with bovine serum albumin (BSA) as a standard.
as §4, §5, §6

Series [4] can be described thus: Renal excretion in male beagle dogs (Assay 4). It counts as in vivo. The following applies: dog, IV 1.0 mg/kg. The protocol: An important factor for insuring appropriate long term drug dosing and correct steady-state drug concentrations in patients is drug clearance. In general, decreased drug clearance results in higher drug concentrations and greater drug effects.
Male beagle dogs (N=3), having body weights of 9.58-10.42 kg, received an IV dose of 1.0 mg/kg of Compound 1. Compound 1 was formulated in 5% NaHCO3 in D5W. The dogs were fasted overnight and pretreated with pentagastrin (60 μg/mL, 0.1 mL/kg, IM) approximately 30 minutes prior to dose administration to stimulate gastric secretion. Food was returned approximately 4 hours postdose. Urine samples were collected surrounded by cold ice packs during the collection period. After 24 hours, the sample weight was recorded, the sample was thoroughly mixed, and aliquots were obtained and frozen (−80° C.) prior to bioanalysis.
Dog urine concentrations of Compound 1 were determined by LC/MS/MS. Urine study samples (diluted in plasma) were vortexed and 50 μL was placed in a 96-well plate. The samples were extracted with acetonitrile with internal standard chrysin. The extract was centrifuged and supernatant was transferred to a new 96-well plate and diluted 1 part sampe in 4 parts water with 0.2% formic acid. Samples (12 μL) were injected on a Waters Acquity UPLC BEH C18 (50×2.1 mm, 1.7 μm) column with a flow rate of 0.9 mL/min. […]

A short description of series [5]: Exposure of crystals to ambient conditions. The series is classed as physicochemical.
Series [6] in a line: IV/PO pharmacokinetic study in rats (Assay 3). The series is classed as in vivo. To be noted: male, Sprague-Dawley, plasma; rat, IV; analyte = compound dosed (active metabolite); read-out: AUClast Mean. How it is done: as §1
In the rat study, pre-cannulated male Sprague-Dawley rats (3 per route) between 8 and 10 weeks of age were obtained from Harlan Laboratories (Indianapolis, Ind.). Rats received either a single oral gavage or a single intravenous (via lateral tail vein) dose of the dosing solution. The final dose was typically 0.5-3 mg/kg. Serial blood samples were harvested via the cannula implanted in the jugular vein at 3 minutes, 15 minutes, 30 minutes, 1 hour, 2 hours, 4 hours, 6 hours, and 24 hours post-dose. Sampling was performed either manually or using automated blood samplers. Samples were collected into microtainer tubes containing sodium fluoride, potassium oxalate and paraoxon, and were processed to plasma by refrigerated centrifugation.
as §2

The target in series [7] is T1, NEP. To be noted: reported in U.S. Patent Application Publication No. 2013/0109639; cited from earlier work.
Target sequence in this assay (P08473 whole entry): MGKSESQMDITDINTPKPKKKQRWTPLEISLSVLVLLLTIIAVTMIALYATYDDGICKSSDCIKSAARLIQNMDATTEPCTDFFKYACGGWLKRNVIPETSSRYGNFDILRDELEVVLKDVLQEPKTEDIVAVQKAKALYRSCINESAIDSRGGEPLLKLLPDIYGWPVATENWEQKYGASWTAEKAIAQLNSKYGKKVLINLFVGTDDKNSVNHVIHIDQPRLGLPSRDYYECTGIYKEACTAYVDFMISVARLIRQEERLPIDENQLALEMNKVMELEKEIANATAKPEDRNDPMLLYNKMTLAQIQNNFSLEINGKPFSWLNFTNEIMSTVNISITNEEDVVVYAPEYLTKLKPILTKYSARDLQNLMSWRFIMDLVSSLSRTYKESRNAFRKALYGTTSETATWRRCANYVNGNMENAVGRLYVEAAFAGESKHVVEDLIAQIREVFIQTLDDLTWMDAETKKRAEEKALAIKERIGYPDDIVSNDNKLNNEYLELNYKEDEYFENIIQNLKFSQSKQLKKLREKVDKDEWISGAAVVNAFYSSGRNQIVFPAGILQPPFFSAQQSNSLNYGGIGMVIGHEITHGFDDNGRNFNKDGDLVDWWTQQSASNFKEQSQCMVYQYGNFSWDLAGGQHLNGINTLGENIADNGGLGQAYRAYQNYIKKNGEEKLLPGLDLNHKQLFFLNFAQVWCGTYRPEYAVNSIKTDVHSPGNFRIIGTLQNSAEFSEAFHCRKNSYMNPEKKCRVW

On to `CCOC(=O)C(=O)N[C@H](Cc1ccc(-c2cc(Cl)ccc2F)cc1)C[C@@](C)(CO)C(=O)O` [Compound 1, (2S,4R)-5-(5′-Chloro-2′-fluorobiphenyl-4-yl)-4-(ethoxyoxalylamino)-2-hydroxymethyl-2-methylpentanoic Acid], for which the AUC(0-t) in series [1] (PO, analyte = compound dosed (prodrug)) turned out to be 0.0037 µg·h/mL. Further, the Ki in series [2] and in series [3] was 0.794 nM each time. Moreover, the “Amount of Compound 1 Excreted in Urine over Collection Period (0-24 hrs) Mean” value in series [4] was 28.9 µg. Further, the “Urinary Excretion (approximate % of administred dose excreted in urine) Mean” value in series [4] (0-24 hrs, 1 mg/kg) was found to be 0.284%.
Take `CCOC(=O)C(=O)N[C@H](Cc1ccc(-c2cc(Cl)ccc2F)cc1)C[C@@](C)(CO)C(=O)O` [Compound 1″, L-Arginine (2S,4R)-5-(5′-Chloro-2′-fluoro-[1,1′-bipheny]-4-yl)-4-(2-ethoxy-2-oxoacetamido)-2-(hydroxymethyl)-2-methylpentanoate]: the “behaviour of crystals at ambient conditions (in words)” value in series [5] is reported as “slow deliquescence”.
For `C[C@@](CO)(C[C@@H](Cc1ccc(-c2cc(Cl)ccc2F)cc1)NC(=O)C(=O)O)C(=O)O` [Comparison Compound C2, (2S,4R)-5-(5′-Chloro-2′-fluorobiphenyl-4-yl)-2-hydroxymethyl-2-methyl-4-(oxalylamino)pentanoic Acid], the AUC(0-t) in series [6] amounted to 16 µg·h/mL; in series [1] (IV, analyte = compound dosed (active metabolite)) it was 1.97 µg·h/mL. For the same compound, the Ki in series [2] was 0.631 nM; in series [3], 0.316 nM. Moreover, the “pKi at NEP” value in series [7] is not below 9.

The term pKi denotes the Ki on a negative log10 scale, so that one unit is a factor of ten.
